For the assay, the target named is Recombinant Human Enteropeptidase (Homo sapiens (Human), UniProt P98073). In words: Enteropeptidase Inhibition Assay. It counts as biochemical. The note with it: substrate Acetyl-Asp-Asp-Asp-Asp-Lys-AFC 30 μM, 30° C., 1 hour; Ki calculated from IC50 using Cheng-Prusoff equation. The procedure: Enteropeptidase Inhibition Assay
The inhibitory activity of the enteropeptidase inhibitor synthesized using the purified Recombinant Human Enteropeptidase and the substrate Acetyl-Asp-Asp-Asp-Asp-Lys-AFC (BioVision) was measured. 7.2 ng/mL of Enteropeptidase diluted with a buffer (20 mM Tris, 50 mM NaCl, pH 7.5) in a 96 well plate (Costar), 30 μM of Acetyl-Asp-Asp-Asp-Asp-Lys-AFC, several concentrations of Enteropeptidase inhibitors (1% DMSO concentration) were dispensed such that a final volume was 100 μL, and then the enzyme reaction was carried out at 30° C. for 1 hour. At this time, 1% DMSO, a substrate and Enteropeptidase instead of the compound were dispensed onto positive control wells, and 1% DMSO and a substrate were dispensed onto negative control wells. The enzyme reaction was […] using an excitation wavelength of 380 nm and an emission wavelength of 500 nm in a fluorescence spectrometer, and then the rate of increase in fluorescence (milli-units per min) between 20 and 60 minutes was measured.
The fluorescence measurement values reduced by the inhibitor diluted at each concentration were converted into relative values % of the positive control group (100% reactivity) and the negative control group (0% reactivity), and used to calculate IC50 values. IC50 is the concentration of the inhibitor that inhibits the enzyme activity by 50%, and was calculated using PRISM (GraphPad). Ki values were calculated from the IC50 values using Cheng-Prusoff equation.

Recombinant Human Enteropeptidase, sequence (P98073 whole entry): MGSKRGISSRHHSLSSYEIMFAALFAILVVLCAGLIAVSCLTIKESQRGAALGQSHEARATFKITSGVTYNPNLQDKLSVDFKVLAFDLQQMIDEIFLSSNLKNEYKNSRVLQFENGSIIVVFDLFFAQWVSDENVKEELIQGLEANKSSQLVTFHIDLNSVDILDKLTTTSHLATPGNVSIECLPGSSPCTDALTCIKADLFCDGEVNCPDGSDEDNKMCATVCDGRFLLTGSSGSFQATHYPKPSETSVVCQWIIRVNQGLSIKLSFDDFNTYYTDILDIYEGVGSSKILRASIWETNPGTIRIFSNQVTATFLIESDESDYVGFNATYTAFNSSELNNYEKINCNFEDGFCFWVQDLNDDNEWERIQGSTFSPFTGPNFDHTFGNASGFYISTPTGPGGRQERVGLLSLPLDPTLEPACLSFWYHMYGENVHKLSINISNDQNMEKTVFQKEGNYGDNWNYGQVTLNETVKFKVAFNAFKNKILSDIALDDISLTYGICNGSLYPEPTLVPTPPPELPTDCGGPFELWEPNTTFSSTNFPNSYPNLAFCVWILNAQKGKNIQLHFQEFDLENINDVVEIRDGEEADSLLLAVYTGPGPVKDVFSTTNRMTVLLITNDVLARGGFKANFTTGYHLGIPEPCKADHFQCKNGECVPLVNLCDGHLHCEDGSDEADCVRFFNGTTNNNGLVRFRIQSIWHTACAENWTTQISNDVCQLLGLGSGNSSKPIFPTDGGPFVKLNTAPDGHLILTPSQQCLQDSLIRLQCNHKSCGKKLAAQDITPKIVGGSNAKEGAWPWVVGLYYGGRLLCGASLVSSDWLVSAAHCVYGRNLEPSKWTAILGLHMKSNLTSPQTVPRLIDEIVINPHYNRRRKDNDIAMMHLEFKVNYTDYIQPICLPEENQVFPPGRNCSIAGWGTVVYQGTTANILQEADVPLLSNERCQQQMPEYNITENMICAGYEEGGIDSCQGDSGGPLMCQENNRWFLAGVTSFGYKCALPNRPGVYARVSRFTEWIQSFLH

As for `CCN(CC(C)(C)C(=O)O)c1nc2ccc(C(=O)Oc3ccc(C(=N)N)cc3F)cc2s1` [Example 75, 3-((6-((4-Carbamimidoyl-2-fluorophenoxy)carbonyl)benzo[d]thiazol-2-yl)(ethyl)amino)-2,2-dimethyl Propanoic Acid], the Ki (commonly the dissociation constant of the complex between target and ligand, obtained from inhibition or displacement) is 0.7 nM.

`CN(CCCC(=O)O)c1nc2ccc(C(=O)Oc3ccc(C(=N)N)cc3F)cc2s1` [Example 76, 4-((6-((4-Carbamimidoyl-2-fluorophenoxy)carbonyl)benzo[d]thiazol-2-yl)(methyl)amino)butanoic Acid]: the Ki was 0.57 nM.

In the case of `CN(CCC(=O)O)c1nc2ccc(C(=O)Oc3ccc(C(=N)N)cc3F)cc2s1` [Example 77, 3-((6-((4-Carbamimidoyl-2-fluorophenoxy)carbonyl)benzo[d]thiazol-2-yl)(methyl) Amino)propanoic Acid], the Ki was 0.57 nM.

As for `N=C(N)c1ccc(OC(=O)c2ccc3nc(N4CCC(C(=O)Nc5ccccc5)CC4)sc3c2)cc1` [Example 80, 4-Carbamimidoylphenyl 2-(4-(phenylcarbamoyl)piperidin-1-yl)benzo[d]thiazole-6-carboxylate], the Ki was 23 nM.

For the compound `N=C(N)c1ccc(OC(=O)c2ccc3nc(N4CCC(NC(=O)c5ccccc5)CC4)sc3c2)c(F)c1` [Example 82, 4-Carbamimidoyl-2-fluorophenyl 2-(4-benzoamidopiperidin-1-yl)benzo[d]thiazole-6-carboxylate], the Ki is 1.9 nM.

For `N=C(N)c1ccc(OC(=O)c2ccc3nc(N4CCC(NC(=O)c5ccccc5)CC4)sc3c2)cc1` [Example 83, 4-Carbamimidoylphenyl 2-(4-benzoamidopiperidin-1-yl)benzo[d]thiazole-6-carboxylate], the Ki is 9.7 nM.

On to `CCN(CCC(=O)OC)c1nc2ccc(C(=O)Oc3ccc(C(=N)N)cc3F)cc2s1` [Example 84, 4-Carbamimidoyl-2-fluorophenyl 2-(ethyl(3-methoxy-3-oxopropyl)amino)benzo[d]thiazole-6-carboxylate], for which the Ki was 2.2 nM.

Regarding `CCN(CCC(=O)O)c1nc2ccc(C(=O)Oc3ccc(C(=N)N)cc3F)cc2s1` [Example 85, 3-((6-((4-Carbamimidoyl-2-fluorophenoxy)carbonyl)benzo[d]thiazol-2-yl)(ethyl)amino)propanoic Acid], the Ki was 0.55 nM.

Take `CN(CC(C)(C)C(=O)O)c1nc2ccc(C(=O)Oc3ccc(C(=N)N)cc3)cc2s1` [Example 86, 3-((6-((4-Carbamimidoylphenoxy)carbonyl)benzo[d]thiazol-2-yl)(methyl)amino)-2,2-dimethylpropanoic Acid]: the Ki was 10 nM.

As for `CCn1/c(=N/CC(C)(C)C(=O)OC)sc2cc(C(=O)Oc3ccc(C(=N)N)cc3F)ccc21` [Example 87, 4-Carbamimidoyl-2-fluorophenyl (Z)-3-ethyl-2-((3-methoxy-2,2-dimethyl-3-oxopropyl)imino)-2,3-dihydrobenzo[d]thiazole-6-carboxylate], the Ki was 4 nM.

Take `CCn1/c(=N/CC(C)(C)C(=O)O)sc2cc(C(=O)Oc3ccc(C(=N)N)cc3F)ccc21` [Example 88, (Z)-3-((6-((4-Carbamimidoyl-2-fluorophenoxy)carbonyl)-3-ethylbenzo[d]thiazole-2(3H)-ylidine)amino)-2,2-dimethylpropanoic Acid]: the inhibition constant (Ki) is 0.16 nM.

The record behind these values is patent US11447480B2, “Compound exhibiting enteropeptidase inhibitory activity” (LG CHEM, LTD., priority 2018, dated 2022).
